Laboratory results from patent publication US20240262830A1, “IRE1A MODULATORS AND USES THEREOF” (Nimbus Iaso, Inc., priority 2020, published 2024).

What was measured:
hIRE1a = assay: XBP1-Luc cell assay; assay type: cell-based; conditions: Homo sapiens; HEK293-pLVX-XBP1.fluc-IRES-Puro cells, 600 nM Thapsigargin 1 hour, then inhibitor 6 hours; read-out: fLuc_XBP1_hIRE1a_HEK293_IC50 (IC50)
Protocol: HEK293-pLVX-XBP1.fluc-IRES-Puro cells (ChemPartner) were collected into DMEM (Invitrogen, 11995-065) with 10% FBS (BI, 04-002-1A). Cells were seeded at 1.5E4 cells/well in BioCoat Poly-D-Lysine Black/Clear flat bottom 96 well plate (Corning, 356640) and incubated overnight at 37° C. and 5% CO2. Cells were treated with 600 nM Thapsigargin (Sigma, T9033) for 1 hour at 37° C. and 5% CO2 prior to inhibitor addition. A titration of inhibitor, starting at 30 μM was added to wells for an additional 6 hours at 37° C. and 5% CO2. 100 μl of Steady-Glo Luciferase assay reagent (Promega, E2550) was added to plate and the plate was shaken for 2 minutes. Signal was read using EnSpire (Perkin Elmer).

[1] = biological target: T1, truncated human IRE1a WT protein, containing the catalytic part (aa 547-977) (Homo sapiens, UniProt O75460); assay: IRE1a biochemical enzyme splice assay; conditions: 20 nM protein, 500 nM fluorescently quenched IRE1a substrate, 40 min at room temperature; read-out: EnzymeSplice_hIRE1a_IC50 (IC50)
T1 construct: containing the catalytic part (aa 547-977); made in house
T1 sequence (O75460 547-977): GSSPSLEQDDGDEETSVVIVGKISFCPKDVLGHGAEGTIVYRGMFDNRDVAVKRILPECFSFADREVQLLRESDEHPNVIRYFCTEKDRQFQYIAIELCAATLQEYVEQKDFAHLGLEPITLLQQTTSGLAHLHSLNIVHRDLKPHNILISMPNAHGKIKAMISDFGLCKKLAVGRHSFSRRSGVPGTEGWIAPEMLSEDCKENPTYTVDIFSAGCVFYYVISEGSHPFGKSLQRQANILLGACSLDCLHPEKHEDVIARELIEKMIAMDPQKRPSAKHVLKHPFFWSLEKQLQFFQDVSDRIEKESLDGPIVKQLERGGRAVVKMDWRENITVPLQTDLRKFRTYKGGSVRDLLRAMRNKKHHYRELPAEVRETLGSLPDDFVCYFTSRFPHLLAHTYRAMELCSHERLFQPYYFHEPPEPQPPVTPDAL
Protocol: A truncated human IRE1a WT protein, containing the catalytic part (aa 547-977) was expressed in baculovirus. The purified protein (20 nM) was incubated with a fluorescently quenched IRE1a substrate (500 nM; 5′/6-FAM-CAGUCCGCAGCACUG-BHQ-1/3′) and a titration of inhibitor, starting at 10 μM (final DMSO concentration=1%) for 40 min at room temperature in assay buffer. Reactions were carried out in a final volume of […] in a 384 well assay plate. The reaction was stopped, and the plate was spun for 1 minute at 1000 rpm. The fluorescence intensity of the IRE1a-substrate was measured using an fluorescent plate reader (Ex 485 nm/Em 535 nm, Perkin Elmer Envision).

## CCc1cc(-c2ccc3c(NC(=O)NC4CC4)ncnn23)cc2cnc(NC3CCCNC3)nc12 (stereo in doubt) [Compound I-24, 3-cyclopropyl-1-(7-{8-ethyl-2-[(3R)-piperidin-3-ylamino]quinazolin-6-yl}pyrrolo[2,1-f][1,2,4]triazin-4-yl)urea]
hIRE1a
  IC50: < 1 µM
[1]
  IC50: 0.1 to 1 µM

## CCc1cc(-c2ccc3c(NS(=O)(=O)c4ccccc4F)ncnn23)cc2cnc(N[C@H]3CCCNC3)nc12 [Compound I-1, (S)—N-(7-(8-ethyl-2-(piperidin-3-ylamino)quinazolin-6-yl)pyrrolo[2,1-f][1,2,4]triazin-4-yl)-2-fluorobenzenesulfonamide]
hIRE1a
  IC50: < 1 µM
[1]
  IC50: < 0.1 µM

## CCc1cc(-c2ccc3c(NS(=O)(=O)c4ccccc4C)ncnn23)cc2cnc(N[C@H]3CCCNC3)nc12 [Compound I-2, (S)—N-(7-(8-ethyl-2-(piperidin-3-ylamino)quinazolin-6-yl)pyrrolo[2,1-f][1,2,4]triazin-4-yl)-2-methylbenzenesulfonamide]
hIRE1a
  IC50: < 1 µM
[1]
  IC50: < 0.1 µM

## CCc1cc(-c2ccc3c(NS(=O)(=O)C4CCCCC4)ncnn23)cc2cnc(N[C@H]3CCCNC3)nc12 [Compound I-3, (S)—N-(7-(8-ethyl-2-(piperidin-3-ylamino)quinazolin-6-yl)pyrrolo[2,1-f][1,2,4]triazin-4-yl)cyclohexanesulfonamide]
hIRE1a
  IC50: < 1 µM
[1]
  IC50: < 0.1 µM

## CCc1cc(-c2ccc3c(NS(=O)(=O)c4ccccc4Cl)ncnn23)cc2cnc(N[C@H]3CCCC[C@@H]3O)nc12 [Compound I-4, 2-chloro-N-(7-(8-ethyl-2-(((1S,2S)-2-hydroxycyclohexyl)amino)quinazolin-6-yl)pyrrolo[2,1-f][1,2,4]triazin-4-yl)benzenesulfonamide]
hIRE1a
  IC50: > 10 µM
[1]
  IC50: 0.1 to 1 µM

## CCc1cc(-c2ccc3c(NS(=O)(=O)c4ccc(OC(F)F)cc4)ncnn23)cc2cnc(N[C@H]3CCCNC3)nc12 [Compound I-5, (S)-4-(difluoromethoxy)-N-(7-(8-ethyl-2-(piperidin-3-ylamino)quinazolin-6-yl)pyrrolo[2,1-f][1,2,4]triazin-4-yl)benzenesulfonamide]
hIRE1a
  IC50: 1 to 10 µM
[1]
  IC50: < 0.1 µM

## CCc1cc(-c2cnc3c(NS(=O)(=O)c4ccccc4Cl)nccn23)cc2cnc(N[C@H]3CCCNC3)nc12 [Compound I-6, (S)-2-chloro-N-(3-(8-ethyl-2-(piperidin-3-ylamino)quinazolin-6-yl)imidazo[1,2-a]pyrazin-8-yl)benzenesulfonamide]
hIRE1a
  IC50: < 1 µM
[1]
  IC50: < 0.1 µM

## CCc1cc(-c2ccc3c(NS(=O)(=O)Cc4ccccc4)ncnn23)cc2cnc(N[C@H]3CCCNC3)nc12 [Compound I-7, (S)—N-(7-(8-ethyl-2-(piperidin-3-ylamino)quinazolin-6-yl)pyrrolo[2,1-f][1,2,4]triazin-4-yl)-1-phenylmethanesulfonamide]
hIRE1a
  IC50: < 1 µM
[1]
  IC50: < 0.1 µM

## CCc1cc(-c2ccc3c(NS(=O)(=O)c4ccccc4Cl)ncnn23)cc2cnc(NC[C@H]3CCCNC3)nc12 [Compound I-8, (S)-2-chloro-N-(7-(8-ethyl-2-((piperidin-3-ylmethyl)amino)quinazolin-6-yl)pyrrolo[2,1-f][1,2,4]triazin-4-yl)benzenesulfonamide]
hIRE1a
  IC50: 1 to 10 µM
[1]
  IC50: < 0.1 µM

## CCc1cc(-c2ccc3c(NS(=O)(=O)CCC(F)(F)F)ncnn23)cc2cnc(N[C@H]3CCCNC3)nc12 [Compound I-9, (S)—N-(7-(8-ethyl-2-(piperidin-3-ylamino)quinazolin-6-yl)pyrrolo[2,1-f][1,2,4]triazin-4-yl)-3,3,3-trifluoropropane-1-sulfonamide]
hIRE1a
  IC50: 1 to 10 µM
[1]
  IC50: < 0.1 µM

## CCc1cc(-c2ccc3c(NS(=O)(=O)c4ccccc4Cl)ncnn23)cc2cnc(N[C@H]3CCCC[C@H]3O)nc12 [Compound I-10, 2-chloro-N-(7-(8-ethyl-2-(((1S,2R)-2-hydroxycyclohexyl)amino)quinazolin-6-yl)pyrrolo[2,1-f][1,2,4]triazin-4-yl)benzenesulfonamide]
[1]
  IC50: > 1 µM

## CCc1cc(-c2ccc3c(NS(=O)(=O)c4ccccc4Cl)ncnn23)cc2cnc(N[C@H]3CCNC3)nc12 [Compound I-11, (S)-2-chloro-N-(7-(8-ethyl-2-(pyrrolidin-3-ylamino)quinazolin-6-yl)pyrrolo[2,1-f][1,2,4]triazin-4-yl)benzenesulfonamide]
hIRE1a
  IC50: 1 to 10 µM
[1]
  IC50: < 0.1 µM

## CCc1cc(-c2ccc3c(NS(=O)(=O)c4ccccc4Cl)ncnn23)cc2cnc(N[C@H]3CCCCNC3)nc12 [Compound I-12, (S)—N-(7-(2-(azepan-3-ylamino)-8-ethylquinazolin-6-yl)pyrrolo[2,1-f][1,2,4]triazin-4-yl)-2-chlorobenzenesulfonamide]
hIRE1a
  IC50: < 1 µM
[1]
  IC50: < 0.1 µM

## CCc1cc(-c2ccc3c(NS(=O)(=O)c4ccccc4Cl)ncnn23)cc2cnc(N[C@H]3CCCC[C@@H]3N)nc12 [Compound I-13, N-(7-(2-(((1S,2S)-2-aminocyclohexyl)amino)-8-ethylquinazolin-6-yl)pyrrolo[2,1-f][1,2,4]triazin-4-yl)-2-chlorobenzenesulfonamide]
[1]
  IC50: > 1 µM

## CCc1cc(-c2ccc3c(NS(=O)(=O)c4ccccc4Cl)ncnn23)cc2cnc(N[C@H]3CC[C@H](O)C3)nc12 [Compound I-14, 2-chloro-N-(7-(8-ethyl-2-(((1S,3S)-3-hydroxycyclopentyl)amino)quinazolin-6-yl)pyrrolo[2,1-f][1,2,4]triazin-4-yl)benzenesulfonamide]
hIRE1a
  IC50: > 10 µM
[1]
  IC50: < 0.1 µM

## CCc1cc(-c2ccc3c(NS(=O)(=O)C4CCCC4)ncnn23)cc2cnc(N[C@H]3CCCNC3)nc12 [Compound I-15, (S)—N-(7-(8-ethyl-2-(piperidin-3-ylamino)quinazolin-6-yl)pyrrolo[2,1-f][1,2,4]triazin-4-yl)cyclopentanesulfonamide]
hIRE1a
  IC50: < 1 µM
[1]
  IC50: < 0.1 µM

## CCc1cc(-c2ccc3c(NS(=O)(=O)c4ccccc4Cl)ncnn23)cc2cnc(NC[C@@H]3CCCNC3)nc12 [Compound I-17, (R)-2-chloro-N-(7-(8-ethyl-2-((piperidin-3-ylmethyl)amino)quinazolin-6-yl)pyrrolo[2,1-f][1,2,4]triazin-4-yl)benzenesulfonamide]
hIRE1a
  IC50: > 10 µM
[1]
  IC50: 0.1 to 1 µM

## CCc1cc(-c2ccc3c(NS(=O)(=O)c4ccccc4Cl)ncnn23)cc2cnc(NC[C@@H]3CCCCN3)nc12 [Compound I-18, (S)-2-chloro-N-(7-(8-ethyl-2-((piperidin-2-ylmethyl)amino)quinazolin-6-yl)pyrrolo[2,1-f][1,2,4]triazin-4-yl)benzenesulfonamide]
hIRE1a
  IC50: > 10 µM
[1]
  IC50: 0.1 to 1 µM

## CCc1cc(-c2n[nH]c3c(NS(=O)(=O)c4ccccc4Cl)cccc23)cc2cnc(N[C@H]3CCCNC3)nc12 [Compound I-19, (S)-2-chloro-N-(3-(8-ethyl-2-(piperidin-3-ylamino)quinazolin-6-yl)-1H-indazol-7-yl)benzenesulfonamide]
hIRE1a
  IC50: < 1 µM
[1]
  IC50: < 0.1 µM

## CCc1cc(-c2ccc3c(NS(=O)(=O)c4ccc(C(F)(F)F)cc4Cl)ncnn23)cc2cnc(N[C@H]3CCCNC3)nc12 [Compound I-34, (S)-2-chloro-N-(7-(8-ethyl-2-(piperidin-3-ylamino)quinazolin-6-yl)pyrrolo[2,1-f][1,2,4]triazin-4-yl)-4-(trifluoromethyl)benzenesulfonamide]
[1]
  IC50: > 1 µM
